The target of the test is T1, MST1 (Homo sapiens, UniProt Q13043).
T1 sequence (Q13043 1-487): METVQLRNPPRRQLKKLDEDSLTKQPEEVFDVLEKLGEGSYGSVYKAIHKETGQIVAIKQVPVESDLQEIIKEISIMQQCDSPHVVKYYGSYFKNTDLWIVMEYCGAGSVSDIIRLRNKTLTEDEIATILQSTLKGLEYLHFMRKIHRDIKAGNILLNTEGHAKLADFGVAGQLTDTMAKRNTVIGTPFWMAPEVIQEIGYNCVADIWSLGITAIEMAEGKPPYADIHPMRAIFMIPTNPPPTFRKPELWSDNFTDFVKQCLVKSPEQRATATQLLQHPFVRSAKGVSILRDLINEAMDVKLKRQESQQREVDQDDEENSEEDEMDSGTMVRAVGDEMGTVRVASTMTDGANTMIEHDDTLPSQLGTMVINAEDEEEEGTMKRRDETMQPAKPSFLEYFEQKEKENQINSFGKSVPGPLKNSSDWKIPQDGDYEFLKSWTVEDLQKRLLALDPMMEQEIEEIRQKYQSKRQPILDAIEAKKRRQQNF
The test is described as follows: In vitro measurement of MST1 inhibition (Z′-Lyte kinase assay). The format is biochemical. The protocol:
Assays were performed in low-volume 384-well black proxiplates (Perkin Elmer, PE-Blk-Proxi-6008269). Eight compounds were first diluted into LDV (Echo) plates using a Multiprobe, at a starting concentration of 1 mM compound in 100% DMSO. Using the ECHO, 75 nl compound was pinged into 384-well proxiplates. The starting concentration of compound in each assay plate is 7.5 uM, followed by 3-fold dilutions, to give quadruplicate ten-point concentration curves. A 3× solution of MST1 enzyme in kinase buffer (Invitrogen, PR4940C) was added to wells containing compound or DMSO controls, followed by a 10 minute preincubation step. Reactions were initiated by adding 5 μL of a mixture of ATP and Z′-Lyte S/T Pep 7 (Invitrogen, PV3180) and proceeded at RT for 1 hour. […] At the end of the kinase reaction, 10 ul of developing solution (Invitrogen, catalog #PR4876B; development buffer A diluted […] in development buffer B) was added to each well and incubated at RT for 1 hr. All wells were read on a Tecan at 400 nm excitation and 460 nm/530 nm emission. Plus and minus enzyme controls were used to calculate percent inhibition and IC50 curves were generated using Excel.

Where [1] appears, read: 1 μM ATP, read-out: IC50 (μM) 1 μM ATP.
Where [2] appears, read: 50 μM ATP, read-out: IC50 (μM) 50 μM ATP.

These results are taken from patent US8440652B2, “MST1 kinase inhibitors and methods of their use” (Lexicon Pharmaceuticals, Inc., priority 2011, dated 2013).

SMILES strings stand for the structures. Read-outs that look alike come from different tables or passages of the source.

Usually IC50 stands for the point on the concentration scale where inhibition reaches its midpoint.

With `NC(=O)c1ccc(-c2cc(-c3ccc(S(=O)(=O)NC4CC4)cc3)cnc2N)cc1` [4-(2-amino-5-(4-(N-cyclopropylsulfamoyl)phenyl)pyridin-3-yl)benzamide], the IC50 under setting [1] is less than 0.05 µM and the IC50 under setting [2] is less than 0.05 µM. Regarding `CNS(=O)(=O)c1ccc(-c2cnc(N)c(-c3ccc(C(N)=O)cc3)c2)cc1` [4-(2-amino-5-(4-(N-methylsulfamoyl)phenyl)pyridin-3-yl)benzamide], the IC50 under setting [2] is less than 0.15 µM. Same read-out and setting: the result for `Nc1ncc(-c2ccc(C(=O)NCc3ccccc3)cc2)cc1-c1ccc(C(=O)NO)cc1` [4-(2-amino-5-(4-(benzylcarbamoyl)phenyl)pyridin-3-yl)-N-hydroxybenzamide] reads less than 0.15 µM. Turning to `NC(=O)c1ccc(-c2cc(-c3ccc(C(=O)c4ccccc4)cc3)cnc2N)cc1` [4-(2-amino-5-(4-benzoylphenyl)pyridin-3-yl)benzamide], the 50% inhibitory concentration (IC50) under setting [2] is less than 0.15 µM. For the compound `CCOc1cc(-c2cc(-c3ccc(F)cc3)cnc2N)ccc1C(N)=O` [4-(2-amino-5-(4-fluorophenyl)pyridin-3-yl)-2-ethoxybenzamide], the half-inhibitory concentration (IC50) under setting [2] was less than 0.15 µM. On to `CCCOc1ccc(-c2cnc(N)c(-c3ccc(C(N)=O)cc3)c2)cc1` [4-(2-amino-5-(4-propoxyphenyl)pyridin-3-yl)benzamide], for which the IC50 under setting [2] was less than 0.15 µM. On the same count and under the same terms, as for `NC(=O)c1ccc(-c2cc(-c3ccc(S(N)(=O)=O)cc3)cnc2N)cc1` [4-(2-amino-5-(4-sulfamoylphenyl)pyridin-3-yl)benzamide], the figure is less than 0.15 µM. Take `CC(C)Oc1cc(-c2nc(-c3ccc(S(=O)(=O)N(C)C4CC4)cc3)cnc2N)ccc1C(N)=O` [4-(3-amino-6-(4-(N-cyclopropyl-N-methylsulfamoyl)phenyl)pyrazin-2-yl)-2-isopropoxybenzamide]: the IC50 under setting [1] was less than 0.05 µM and the half-inhibitory concentration (IC50) under setting [2] is less than 0.01 µM.

As to `N#CC1(c2ccc(-c3cnc(N)c(-c4ccc5c(c4)CCNC5=O)n3)cc2)CCOCC1` [4-(4-(5-amino-6-(1-oxo-1,2,3,4-tetrahydroisoquinolin-6-yl)pyrazin-2-yl)phenyl)tetrahydro-2H-pyran-4-carbonitrile], the half-inhibitory concentration (IC50) is less than 0.05 µM under setting [1] and less than 0.01 µM under setting [2]. On the same counts, the results for `N#CC1(c2ccc(-c3cnc(N)c(-c4ccc5c(c4)CCCNC5=O)n3)cc2)CCOCC1` [4-(4-(5-amino-6-(1-oxo-2,3,4,5-tetrahydro-1H-benzo[c]azepin-7-yl)pyrazin-2-yl)phenyl)tetrahydro-2H-pyran-4-carbonitrile] are less than 0.05 µM and less than 0.01 µM. Consider `N#CC1(c2ccc(-c3cnc(N)c(-c4ccc5c(c4)C4(CC4)NC5=O)n3)cc2)CCOCC1` [4-(4-(5-amino-6-(3′-oxospiro[cyclopropane-1,1′-isoindolin]-6′-yl)pyrazin-2-yl)phenyl)tetrahydro-2H-pyran-4-carbonitrile], for which the IC50 by setting is: under setting [1], less than 0.05 µM; under setting [2], less than 0.01 µM. On the same counts, the results for `CC1(C)CNC(=O)c2ccc(-c3nc(-c4ccc(C5(C#N)CCOCC5)cc4)cnc3N)cc21` [4-(4-(5-amino-6-(4,4-dimethyl-1-oxo-1,2,3,4-tetrahydroisoquinolin-6-yl)pyrazin-2-yl)phenyl)tetrahydro-2H-pyran-4-carbonitrile] are less than 0.01 µM and less than 0.01 µM. On the same counts, the results for `N#CC1(c2ccc(-c3cnc(N)c(-c4ccc5c(c4)NCCNC5=O)n3)cc2)CCOCC1` [4-(4-(5-amino-6-(5-oxo-2,3,4,5-tetrahydro-1H-benzo[e][1,4]diazepin-8-yl)pyrazin-2-yl)phenyl)tetrahydro-2H-pyran-4-carbonitrile] are less than 0.05 µM and less than 0.01 µM.

Consider `N#CC1(c2ccc(-c3cnc(N)c(-c4ccc5c(c4)C4(CC4)CNC5=O)c3)cc2)CCOCC1` [4-(4-(6-amino-5-(1′-oxo-2′,3′-dihydro-1′H-spiro[cyclopropane-1,4′-isoquinolin]-6′-yl)pyridin-3-yl)phenyl)tetrahydro-2H-pyran-4-carbonitrile], for which the half-inhibitory concentration (IC50) reads like this: under setting [1], less than 0.01 µM; under setting [2], less than 0.01 µM.

As for `N#CC1(c2ccc(-c3cnc(N)c(-c4ccc5c(c4)C4(CC4)NC5=O)c3)cc2)CCOCC1` [4-(4-(6-amino-5-(3′-oxospiro[cyclopropane-1,1′-isoindolin]-6′-yl)pyridin-3-yl)phenyl)tetrahydro-2H-pyran-4-carbonitrile], the IC50 was less than 0.05 µM under setting [1] and less than 0.01 µM under setting [2]. The like results for `CC1(C)CNC(=O)c2ccc(-c3cc(-c4ccc(C5(C#N)CCOCC5)cc4)cnc3N)cc21` [4-(4-(6-amino-5-(4,4-dimethyl-1-oxo-1,2,3,4-tetrahydroisoquinolin-6-yl)pyridin-3-yl)phenyl)tetrahydro-2H-pyran-4-carbonitrile] were, in that order, less than 0.01 µM and less than 0.01 µM. With `NC(=O)c1ccc(-c2cc(-c3ccc(-n4ccnc4)cc3)cnc2N)cc1` [4-(5-(4-(1H-imidazol-1-yl)phenyl)-2-aminopyridin-3-yl)benzamide], the IC50 under setting [2] is less than 0.15 µM. With `CC(=O)NS(=O)(=O)c1ccc(-c2cnc(N)c(-c3ccc(C(N)=O)cc3)c2)cc1` [4-(5-(4-(N-acetylsulfamoyl)phenyl)-2-aminopyridin-3-yl)benzamide], the IC50 under setting [2] is less than 0.15 µM.

Consider `CCN(C)S(=O)(=O)c1ccc(-c2cnc(N)c(-c3ccc4c(O)nccc4c3)n2)cc1` [4-(5-amino-6-(1-hydroxyisoquinolin-6-yl)pyrazin-2-yl)-N-ethyl-N-methylbenzenesulfonamide], for which the IC50 under setting [1] was less than 0.01 µM and the concentration for half-maximal inhibition (IC50) under setting [2] is less than 0.01 µM. Regarding `CCN(C)S(=O)(=O)c1ccc(-c2cnc(N)c(-c3ccc4c(c3)CCNC4=O)n2)cc1Cl` [4-(5-amino-6-(1-oxo-1,2,3,4-tetrahydroisoquinolin-6-yl)pyrazin-2-yl)-2-chloro-N-ethyl-N-methylbenzenesulfonamide], the IC50 was less than 0.01 µM under setting [1] and less than 0.01 µM under setting [2]. On to `CCCN(C)S(=O)(=O)c1ccc(-c2cnc(N)c(-c3ccc4c(c3)CCNC4=O)n2)cc1Cl` [4-(5-amino-6-(1-oxo-1,2,3,4-tetrahydroisoquinolin-6-yl)pyrazin-2-yl)-2-chloro-N-methyl-N-propylbenzenesulfonamide], for which the 50% inhibitory concentration (IC50) runs as follows: under setting [1], less than 0.01 µM; under setting [2], less than 0.01 µM.

`[2H]C([2H])([2H])N(C([2H])([2H])[2H])S(=O)(=O)c1ccc(-c2cnc(N)c(-c3ccc4c(c3)CCNC4=O)n2)cc1` [4-(5-amino-6-(1-oxo-1,2,3,4-tetrahydroisoquinolin-6-yl)pyrazin-2-yl)-N,N-di(trideuteromethyl)benzenesulfonamide]: the IC50 runs as follows: under setting [1], less than 0.01 µM; under setting [2], less than 0.01 µM. On to `CN(CC(F)F)S(=O)(=O)c1ccc(-c2cnc(N)c(-c3ccc4c(c3)CCNC4=O)n2)cc1` [4-(5-amino-6-(1-oxo-1,2,3,4-tetrahydroisoquinolin-6-yl)pyrazin-2-yl)-N-(2,2-difluoroethyl)-N-methylbenzenesulfonamide], for which the half-maximal inhibitory concentration (IC50) is less than 0.05 µM under setting [1] and less than 0.01 µM under setting [2]. As for `CCN(CC1CC1)S(=O)(=O)c1ccc(-c2cnc(N)c(-c3ccc4c(c3)CCNC4=O)n2)cc1` [4-(5-amino-6-(1-oxo-1,2,3,4-tetrahydroisoquinolin-6-yl)pyrazin-2-yl)-N-(cyclopropylmethyl)-N-ethylbenzenesulfonamide], the concentration for half-maximal inhibition (IC50) was less than 0.01 µM under setting [1] and less than 0.01 µM under setting [2].
